# From PMC5675004 (Cancer cell, 2015)
# Experiments:
# [1] = test system: PPT CGNPs expressing vismodegib-resistant SMO mutants; assay: PPT CGNP proliferation, methyl-[3H]-thymidine incorporation; format: cell-based, mouse; details: for proliferation in the presence of SMO inhibitor: 500 nM of compound, SMO-mutant expressing cells
# [2] = test system: PPT CGNPs infected with SMO-WT and Cre; assay: as above; format: cell-based, mouse; details: for proliferation in the presence of SMO inhibitor: 500 nM of compound
# [3] = test system: SMO-W535L expressing CGNPs; assay: as above; format: cell-based, mouse; details: vismodegib dose response after removal of SHH ligand
# SMO-I408V = SMO-I408V (Homo sapiens, UniProt Q99835, I408V); assay: [3H]-vismodegib binding to transfected HEK-293 cells; details: compared with SMO-WT at similar cell surface levels
# Chain of SMO-I408V (Q99835 28-787 I408V): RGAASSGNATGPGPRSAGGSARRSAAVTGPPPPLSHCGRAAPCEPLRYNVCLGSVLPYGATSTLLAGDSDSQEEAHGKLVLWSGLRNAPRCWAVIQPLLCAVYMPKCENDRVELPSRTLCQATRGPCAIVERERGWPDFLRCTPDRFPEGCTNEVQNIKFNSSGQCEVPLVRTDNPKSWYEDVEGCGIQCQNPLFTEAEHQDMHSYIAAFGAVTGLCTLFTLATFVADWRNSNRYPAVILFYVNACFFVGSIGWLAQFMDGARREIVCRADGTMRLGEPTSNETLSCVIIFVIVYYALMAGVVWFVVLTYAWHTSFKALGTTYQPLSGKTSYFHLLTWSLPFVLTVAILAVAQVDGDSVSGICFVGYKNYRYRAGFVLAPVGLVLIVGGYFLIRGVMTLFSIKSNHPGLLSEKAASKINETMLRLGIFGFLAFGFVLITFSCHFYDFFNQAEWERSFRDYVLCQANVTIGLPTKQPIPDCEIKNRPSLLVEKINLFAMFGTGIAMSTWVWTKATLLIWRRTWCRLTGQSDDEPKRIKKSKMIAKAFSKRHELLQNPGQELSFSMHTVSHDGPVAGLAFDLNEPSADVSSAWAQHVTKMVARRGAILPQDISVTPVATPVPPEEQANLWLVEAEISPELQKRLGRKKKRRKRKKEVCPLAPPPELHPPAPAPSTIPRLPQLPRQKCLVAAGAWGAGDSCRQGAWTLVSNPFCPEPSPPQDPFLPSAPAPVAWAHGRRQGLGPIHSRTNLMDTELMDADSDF
# SMO-D473H = details: mutation from relapsed metastatic MB; ref Yauch et al., 2009; cited from earlier work
# [4] = test system: SMO-A459V expressing CGNPs; assay: PPT CGNP proliferation, methyl-[3H]-thymidine incorporation; format: cell-based, mouse; details: vismodegib dose response after removal of SHH ligand
# activating SMO mutants = assay: [3H]-vismodegib binding to transfected HEK-293 cells; details: all activating mutants tested, cell surface expression comparable to SMO-WT
# SMO-D384N = SMO-D384N (Homo sapiens, UniProt Q99835, D384N); assay: Gli-luciferase based Hh reporter assay; format: cell-based; details: 1 μM vismodegib, C3H10T½ cells
# Chain of SMO-D384N (Q99835 28-787 D384N): as the sequence (Q99835 28-787 I408V) above, with D357N, V381I counted along it
# advanced BCC patients = details: ref Chang and Oro, 2012; cited from earlier work
# SMO-N219D = SMO-N219D (Homo sapiens, UniProt Q99835, N219D); assay: Gli-luciferase based Hh reporter assay; format: cell-based; details: 1 μM vismodegib, C3H10T½ cells
# Chain of SMO-N219D (Q99835 28-787 N219D): as the sequence (Q99835 28-787 I408V) above, with N192D, V381I counted along it
# [5] = test system: SMO-T241M expressing CGNPs; assay: PPT CGNP proliferation, methyl-[3H]-thymidine incorporation; format: cell-based, mouse; details: vismodegib dose response after removal of SHH ligand
# [6] = test system: PPT CGNPs infected with SMO DBP mutants; assay: as above; format: cell-based, mouse; details: high levels of vismodegib (>1 μM)
# [7] = test system: PPT CGNPs infected with SMO-C469Y; assay: as above; format: cell-based, mouse; details: 5 μM vismodegib
# SMO-S387N = SMO-S387N (Homo sapiens, UniProt Q99835, S387N); assay: Gli-luciferase based Hh reporter assay; format: cell-based; details: 1 μM vismodegib, C3H10T½ cells
# Chain of SMO-S387N (Q99835 28-787 S387N): as the sequence (Q99835 28-787 I408V) above, with S360N, V381I counted along it
compound,measurement,setting,value
Cc1sc2c(c1C)C(c1ccc(Cl)cc1)=N[C@@H](CC(=O)OC(C)(C)C)c1nnc(C)n1-2 [JQ1],proliferation in the presence of bromodomain inhibitor,[1]; 1 μM JQ1,reduced proliferation
"Cc1c(C(=O)Nc2ccc(N3C[C@@H](C)O[C@@H](C)C3)nc2)cccc1-c1ccc(OC(F)(F)F)cc1 [LDE225, sonidegib]",proliferation in the presence of SMO inhibitor,[1],"continued to proliferate, albeit to differing extents"
same,proliferation in the presence of SMO inhibitor,[2],similarly inhibited the proliferation
CN(C(=O)c1ccc(F)cc1C(F)(F)F)C1CCN(c2nnc(-c3ccnn3C)c3ccccc23)CC1 [LY2940680],proliferation in the presence of SMO inhibitor,[1],"continued to proliferate, albeit to differing extents"
same,proliferation in the presence of SMO inhibitor,[2],similarly inhibited the proliferation
CS(=O)(=O)c1ccc(C(=O)Nc2ccc(Cl)c(-c3ccccn3)c2)c(Cl)c1 [vismodegib],proliferation in the presence of vismodegib,[3],continued to proliferate at high concentrations of vismodegib
same,[3H]-vismodegib binding,SMO-I408V,impaired vismodegib binding
same,drug binding in vitro,SMO-D473H,abrogate drug binding
same,proliferation in the presence of vismodegib,[4],continued to proliferate at high concentrations of vismodegib
same,vismodegib binding,activating SMO mutants,impaired vismodegib binding
same,sensitivity to vismodegib compared to SMO-WT,SMO-D384N,reduced sensitivity
same,"estimated incidence of secondary, or acquired, resistance in BCC",advanced BCC patients,~ 20 % per year
same,sensitivity to vismodegib compared to SMO-WT,SMO-N219D,reduced sensitivity
same,proliferation in the presence of vismodegib,[5],continued to proliferate at high concentrations of vismodegib
same,proliferation in the presence of vismodegib,[6],continuing to proliferate at high levels of vismodegib
same,proliferation in the presence of vismodegib,[7],continued to proliferate at near untreated levels
same,IC50,"[2]; Mus musculus, read-out: IC50, proliferation",~22 nM
same,concentration at which proliferation was maximally inhibited,[2]; after removal of SHH ligand,100 nM
same,sensitivity to vismodegib compared to SMO-WT,SMO-S387N,reduced sensitivity
